From patent publication US8895585B2, “Nicotinamide derivative or salt thereof” (FUJIFILM Corporation, priority 2010, dated 2014)

What was measured:
[1] = biological target: T1, glutathione S-transferase (GST)-fused full-length human Syk protein (Homo sapiens, UniProt P43405); experiment: Syk enzyme assay; assay type: biochemical; settings: Syk enzyme assay, Test Example 1; read-out: IC50 of Syk-inhibitory activity
T1 construct: (GST)-fused full-length human Syk protein; GST (glutathione S-transferase); purchased Carna Biosciences
How it was run: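 IC50 values come from a time-resolved FRET readout (615 and 665 nm) of substrate phosphorylation, measured after an EDTA stop and 1 h antibody binding. The kinase reaction ran 40 min at room temperature with 27 μM ATP and 0.4 μM biotin-peptide, following a 15 min compound preincubation with baculovirus-made GST-full-length human Syk.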

THP-1 cells = experiment: TNFα generation assay; assay type: cell-based, human; settings: Homo sapiens, THP-1, THP-1 cells; Table 22; read-out: IC50 in TNFα generation assay
How it was run: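 THP-1 cells differentiated to macrophage-like cells with 10 ng/ml IFN-γ for 2 days, preincubated with compound 30 min at room temperature, then cultured 7 h on plates coated with human IgG (10 μg/ml). Secreted TNFα measured by ELISA or AlphaLISA.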

| Structure (SMILES) | IC50 [1] [nM] | IC50 (THP-1 cells) [nM] |
| --- | --- | --- |
| NC(=O)c1cc(F)c(N[C@@H]2CCCC[C@@H]2N)nc1Nc1cncc(Cl)c1 (relative stereo) [Example 004-097, 6-(cis-2-aminocyclohexylamino)-2-((5-chloropyridin-3-yl)amino)-5-fluoronicotinamide] | < 10 | 65 to 130 |
| NC(=O)c1cc(F)c(N[C@@H]2CCCC[C@@H]2N)nc1Nc1cncc(F)c1 (relative stereo) [Example 004-105, 6-(cis-2-aminocyclohexylamino)-5-fluoro-2-((5-fluoropyridin-3-yl)amino)nicotinamide] | 10 to 50 | 130 to 200 |
| COCCOc1cccc(-c2cncc(Nc3nc(N[C@@H]4CCCC[C@@H]4N)c(F)cc3C(N)=O)c2)c1 (relative stereo) [Example 004-109, 6-(cis-2-aminocyclohexylamino)-5-fluoro-2-((5-(3-(2-methoxyethoxy)phenyl)pyridin-3-yl)-amino)nicotinamide] | < 10 | 130 to 200 |
| COc1cccc(-c2cncc(Nc3nc(N[C@@H]4CCCC[C@@H]4N)c(F)cc3C(N)=O)c2)c1 (relative stereo) [Example 004-113, 6-(cis-2-aminocyclohexylamino)-5-fluoro-2-((5-(3-methoxyphenyl)pyridin-3-yl)amino)-nicotinamide] | < 10 | 130 to 200 |
| COc1ccc(-c2cncc(Nc3nc(N[C@@H]4CCCC[C@@H]4N)c(F)cc3C(N)=O)c2)cc1 (relative stereo) [Example 004-114, 6-(cis-2-aminocyclohexylamino)-5-fluoro-2-((5-(4-methoxyphenyl)pyridin-3-yl)amino)-nicotinamide] | < 10 | 65 to 130 |
| Cn1c(F)cc2cc(Nc3nc(N[C@@H]4CCCC[C@@H]4N)c(F)cc3C(N)=O)ccc21 (relative stereo) [Example 004-117, 6-(cis-2-aminocyclohexylamino)-5-fluoro-2-((2-fluoro-1-methyl-1H-indol-5-yl)amino)-nicotinamide] | < 10 | 130 to 200 |
| NC(=O)c1cc(F)c(N[C@@H]2CCCC[C@@H]2N)nc1Nc1cncc(-c2cnco2)c1 (relative stereo) [Example 004-118, 6-(cis-2-aminocyclohexylamino)-5-fluoro-2-((5-(oxazol-5-yl)pyridin-3-yl)amino)-nicotinamide] | < 10 | 65 to 130 |
| NC(=O)c1cc(F)c(N[C@@H]2CCCC[C@@H]2N)nc1Nc1cnc2cc(N3CCOCC3)ccc2c1 (relative stereo) [Example 004-123, 6-(cis-2-aminocyclohexylamino)-5-fluoro-2-((7-morpholinoquinolin-3-yl)amino)-nicotinamide] | < 10 | 130 to 200 |
| NC(=O)c1cc(F)c(N[C@@H]2CCCC[C@@H]2N)nc1Nc1cnc2cc(N)ccc2c1 (relative stereo) [Example 004-125, 6-(cis-2-aminocyclohexylamino)-2-((7-aminoquinolin-3-yl)amino)-5-fluoronicotinamide] | < 10 | 65 to 130 |
| COCCOc1ccc2cc(Nc3nc(N[C@@H]4CCCC[C@@H]4N)c(F)cc3C(N)=O)cnc2c1 (relative stereo) [Example 004-127, 6-(cis-2-aminocyclohexylamino)-5-fluoro-2-((7-(2-methoxyethoxy)quinolin-3-yl)amino)-nicotinamide] | < 10 | 130 to 200 |
| COc1ccc2cc(Nc3nc(N[C@@H]4CCCC[C@@H]4N)c(F)cc3C(N)=O)cnc2c1 (relative stereo) [Example 004-128, 6-(cis-2-aminocyclohexylamino)-5-fluoro-2-((7-methoxyquinolin-3-yl)amino)nicotinamide] | < 10 | 65 to 130 |
| NC(=O)c1cc(F)c(N[C@@H]2CCCC[C@@H]2N)nc1Nc1ccccc1 (relative stereo) [Example 004-129, 6-(cis-2-aminocyclohexylamino)-5-fluoro-2-(phenylamino)nicotinamide] | < 10 | 65 to 130 |
| CC(=O)c1cncc(Nc2nc(N[C@@H]3CCCC[C@@H]3N)c(F)cc2C(N)=O)c1 (relative stereo) [Example 004-132, 2-((5-acetylpyridin-3-yl)amino)-6-(cis-2-aminocyclohexylamino)-5-fluoronicotinamide] | 10 to 50 | 65 to 130 |
| NC(=O)c1cc(F)c(N[C@@H]2CCCC[C@@H]2N)nc1Nc1cncc(-c2ccno2)c1 (relative stereo) [Example 004-141, 6-(cis-2-aminocyclohexylamino)-5-fluoro-2-((5-(isoxazol-5-yl)pyridin-3-yl)amino)-nicotinamide] | < 10 | 65 to 130 |
| NC(=O)c1cc(F)c(N[C@@H]2CCCC[C@@H]2N)nc1Nc1cncc(-c2ccccc2F)c1 (relative stereo) [Example 004-143, 6-(cis-2-aminocyclohexylamino)-5-fluoro-2-((5-(2-fluorophenyl)pyridin-3-yl)amino)-nicotinamide] | < 10 | 65 to 130 |
| COc1ccccc1-c1cncc(Nc2nc(N[C@@H]3CCCC[C@@H]3N)c(F)cc2C(N)=O)c1 (relative stereo) [Example 004-149, 6-(cis-2-aminocyclohexylamino)-5-fluoro-2-((5-(2-methoxyphenyl)pyridin-3-yl)amino)-nicotinamide] | < 10 | 130 to 200 |
| NC(=O)c1cc(F)c(N[C@@H]2CCCC[C@@H]2N)nc1Nc1cccc2cnccc12 (relative stereo) [Example 004-159, 6-(cis-2-aminocyclohexylamino)-5-fluoro-2-((isoquinolin-5-yl)amino)nicotinamide] | < 10 | 65 to 130 |
| NC(=O)c1cc(F)c(N[C@@H]2CCCC[C@@H]2N)nc1Nc1cnc2c(c1)OCCO2 (relative stereo) [Example 004-161, 6-(cis-2-aminocyclohexylamino)-2-((2,3-dihydro-[1,4]dioxino[2,3-b]pyridin-7-yl)amino)-5-fluoronicotinamide] | 10 to 50 | 130 to 200 |
| NC(=O)c1cc(F)c(N[C@@H]2CCCC[C@@H]2N)nc1Nc1cnc2c(c1)CCC2 (relative stereo) [Example 004-162, 6-(cis-2-aminocyclohexylamino)-2-((6,7-dihydro-5H-cyclopenta[b]pyridin-3-yl)amino)-5-fluoronicotinamide] | < 10 | 130 to 200 |
| NC(=O)c1cc(F)c(N[C@@H]2CCCC[C@@H]2N)nc1Nc1ccc2cnccc2c1 (relative stereo) [Example 004-163, 6-(cis-2-aminocyclohexylamino)-5-fluoro-2-((isoquinolin-6-yl)amino)nicotinamide] | < 10 | < 65 |
| COc1nccc2cc(Nc3nc(N[C@@H]4CCCC[C@@H]4N)c(F)cc3C(N)=O)ccc12 (relative stereo) [Example 004-164, 6-(cis-2-aminocyclohexylamino)-5-fluoro-2-((1-methoxyisoquinolin-6-yl)amino)-nicotinamide] | < 10 | 130 to 200 |
| COCCOc1nccc2cc(Nc3nc(N[C@@H]4CCCC[C@@H]4N)c(F)cc3C(N)=O)ccc12 (relative stereo) [Example 004-168, 6-(cis-2-aminocyclohexylamino)-5-fluoro-2-((1-(2-methoxyethoxy)isoquinolin-6-yl)amino)-nicotinamide] | < 10 | 130 to 200 |
| NC(=O)c1cc(F)c(N[C@@H]2CCCC[C@@H]2N)nc1Nc1cncc(-c2ccc(F)cc2F)c1 (relative stereo) [Example 004-181, 6-(cis-2-aminocyclohexylamino)-2-((5-(2,4-difluorophenyl)pyridin-3-yl)amino)-5-fluoronicotinamide] | < 10 | 130 to 200 |
| COCc1cncc(Nc2nc(N[C@@H]3CCCC[C@@H]3N)c(F)cc2C(N)=O)c1 (relative stereo) [Example 004-188, 6-(cis-2-aminocyclohexylamino)-5-fluoro-2-((5-(methoxymethyl)pyridin-3-yl)amino)nicotinamide] | 10 to 50 | 65 to 130 |
| COc1ccc(-c2cncc(Nc3nc(N[C@@H]4CCCC[C@@H]4N)c(F)cc3C(N)=O)c2)c(OC)c1 (relative stereo) [Example 004-190, 6-(cis-2-aminocyclohexylamino)-2-((5-(2,4-dimethoxyphenyl)pyridin-3-yl)amino)-5-fluoronicotinamide] | < 10 | 130 to 200 |
| COCc1cc(Nc2nc(N[C@@H]3CCCC[C@@H]3N)c(F)cc2C(N)=O)ccn1 (relative stereo) [Example 004-191, 6-(cis-2-aminocyclohexylamino)-5-fluoro-2-((2-(methoxymethyl)pyridin-4-yl)amino)nicotinamide] | 10 to 50 | 65 to 130 |
| COc1cccc(-c2cncc(Nc3nc(N[C@@H]4CCCC[C@@H]4N)c(F)cc3C(N)=O)c2)c1F (relative stereo) [Example 004-197, 6-(cis-2-aminocyclohexylamino)-5-fluoro-2-((5-(2-fluoro-3-methoxyphenyl)pyridin-3-yl)amino)nicotinamide] | < 10 | 65 to 130 |
| COc1ccc(-c2cncc(Nc3nc(N[C@@H]4CCCC[C@@H]4N)c(F)cc3C(N)=O)c2)c(F)c1 (relative stereo) [Example 004-198, 6-(cis-2-aminocyclohexylamino)-5-fluoro-2-((5-(2-fluoro-4-methoxyphenyl)pyridin-3-yl)amino)nicotinamide] | < 10 | 65 to 130 |
